In ChEMBL document CHEMBL4130638, “Discovery of the Polyamine Conjugate with Benzo[ cd]indol-2(1 H)-one as a Lysosome-Targeted Antimetastatic Agent” (J Med Chem, 2018):
Activity calls are given as the source filed them. No cut-off for these calls is given here.

How the values were obtained:
HCT-116 [1] = assay: Growth inhibition of human HCT116 cells after 48 hrs by MTT assay; assay type: functional, cell-based; conditions: HCT-116, 48 h
HepG2 = assay: Growth inhibition of human HepG2 cells after 48 hrs by MTT assay; assay type: functional, cell-based; conditions: HepG2, 48 h
HCT-116 [2] = assay: Antimigratory activity against human HCT116 cells after 24 hrs by crystal violet staining based transwell assay; assay type: functional, cell-based
CT26 [3] = assay: Antimigratory activity against mouse CT26 cells after 24 hrs by crystal violet staining based transwell assay; assay type: functional, cell-based
Mus musculus [4] = assay: Toxicity in Balb/c mouse implanted with mouse CT26 cells assessed as changes in body weight at 1 mg/kg, iv for 14 consecutive days starting from day 8 post tumor implantation; assay type: organism-based; conditions: in vivo
Mus musculus [5] = assay: Toxicity in Balb/c mouse implanted with mouse CT26 cells assessed as increase in heart weight at 1 mg/kg, iv for 7 consecutive days starting from day 8 post tumor implantation; assay type: organism-based; conditions: in vivo
Mus musculus [6] = assay: Toxicity in Balb/c mouse implanted with mouse CT26 cells assessed as increase in heart weight at 1 mg/kg, iv for 14 consecutive days starting from day 8 post tumor implantation; assay type: organism-based; conditions: in vivo
Mus musculus [7] = assay: Toxicity in Balb/c mouse implanted with mouse CT26 cells assessed as increase in liver weight at 1 mg/kg, iv for 14 consecutive days starting from day 8 post tumor implantation; assay type: organism-based; conditions: in vivo
Mus musculus [8] = assay: Toxicity in Balb/c mouse implanted with mouse CT26 cells assessed as increase in spleen weight at 1 mg/kg, iv for 7 consecutive days starting from day 8 post tumor implantation; assay type: organism-based; conditions: in vivo
[9] = Drug uptake in human HCT116 cells assessed as PAT-mediated drug internalization at 2.5 to 7.5 uM after 24 hrs in presence of spermidine by high content screening analysis; assay type: ADME, cell-based
[10] = Drug uptake in human HCT116 cell lysosomes at 10 uM after 2 hrs by Lyso-tracker staining based confocal microscopic method; assay type: ADME, subcellular, Lysosome; conditions: hct-116, 2 h
HCT-116 [11] = assay: Induction of apoptosis in human HCT116 cells after 24 hrs by acridine orange and ethidium bromide staining based high content screening analysis; assay type: functional, cell-based
CT26 [12] = assay: Induction of apoptosis in mouse CT26 cells after 24 hrs by acridine orange and ethidium bromide staining based high content screening analysis; assay type: functional, cell-based
CT26 [13] = assay: Induction of autophagy in mouse CT26 cells after 24 hrs by MDC staining based flow cytometry; assay type: functional, cell-based
HCT-116 [14] = assay: Induction of apoptosis in human HCT116 cells assessed as early apoptotic cells at 10 uM after 24 hrs by annexin V-FITC/propidium iodide staining based flow cytometry (reference value: 4.1%); assay type: functional
HCT-116 [15] = assay: Induction of apoptosis in human HCT116 cells assessed as necrotic cells at 10 uM after 24 hrs by annexin V-FITC/propidium iodide staining based flow cytometry (reference value: 3.9%); assay type: functional
HCT-116 [16] = assay: Induction of apoptosis in human HCT116 cells assessed as early apoptotic cells at 10 uM after 24 hrs in presence of autophagy inhibitor 3-MA by annexin V-FITC/propidium iodide staining based flow cytometry (reference value: 4.1%); assay type: functional
HCT-116 [17] = assay: Induction of apoptosis in human HCT116 cells assessed as late apoptotic cells at 10 uM after 24 hrs in presence of autophagy inhibitor 3-MA by annexin V-FITC/propidium iodide staining based flow cytometry (reference value: 2.03%); assay type: functional
HCT-116 [18] = assay: Induction of apoptosis in human HCT116 cells assessed as necrotic cells at 10 uM after 24 hrs in presence of autophagy inhibitor 3-MA by annexin V-FITC/propidium iodide staining based flow cytometry (reference value: 3.9%); assay type: functional
HCT-116 [19] = assay: Induction of apoptosis in human HCT116 cells assessed as live cells at 10 uM after 24 hrs in presence of pan-caspase inhibitor Z-VAD-FMK by annexin V-FITC/propidium iodide staining based flow cytometry (reference value: 89.97%); assay type: functional
HCT-116 [20] = assay: Induction of apoptosis in human HCT116 cells assessed as early apoptotic cells at 10 uM after 24 hrs in presence of pan-caspase inhibitor Z-VAD-FMK by annexin V-FITC/propidium iodide staining based flow cytometry (reference value: 4.1%); assay type: functional
CT26 [21] = assay: Induction of apoptosis in mouse CT26 cells assessed as early apoptotic cells at 10 uM after 24 hrs by annexin V-FITC/propidium iodide staining based flow cytometry (reference value: 3.91%); assay type: functional
CT26 [22] = assay: Induction of apoptosis in mouse CT26 cells assessed as necrotic cells at 10 uM after 24 hrs by annexin V-FITC/propidium iodide staining based flow cytometry (reference value: 4.36%); assay type: functional
CT26 [23] = assay: Induction of apoptosis in mouse CT26 cells assessed as live cells at 10 uM after 24 hrs in presence of autophagy inhibitor 3-MA by annexin V-FITC/propidium iodide staining based flow cytometry (reference value: 89.47%); assay type: functional
CT26 [24] = assay: Induction of apoptosis in mouse CT26 cells assessed as late apoptotic cells at 10 uM after 24 hrs in presence of autophagy inhibitor 3-MA by annexin V-FITC/propidium iodide staining based flow cytometry (reference value: 2.26%); assay type: functional
CT26 [25] = assay: Induction of apoptosis in mouse CT26 cells assessed as early apoptotic cells after 24 hrs by annexin V-FITC/propidium iodide staining based flow cytometry; assay type: functional, cell-based
CT26 [26] = assay: Induction of autophagy in mouse CT26 cells at 5 to 20 uM after 24 hrs by Lyso staining based flow cytometry; assay type: functional, cell-based
HCT-116 [27] = assay: Induction of autophagy in human HCT116 cells at 5 to 20 uM after 24 hrs in presence of autophagy inhibitor 3-MA by MDC staining based flow cytometry; assay type: functional, cell-based
HCT-116 [28] = assay: Induction of autophagy in human HCT116 cells at 5 to 20 uM after 24 hrs in presence of autophagy inhibitor 3-MA by Lyso staining based flow cytometry; assay type: functional, cell-based
CT26 [29] = assay: Induction of autophagy in mouse CT26 cells at 10 to 20 uM after 24 hrs in presence of autophagy inhibitor 3-MA by MDC staining based flow cytometry; assay type: functional, cell-based
HCT-116 [30] = assay: Induction of autophagy in human HCT116 cells at 5 to 20 uM after 24 hrs in presence of pan-caspase inhibitor Z-VAD-FMK by Lyso staining based flow cytometry; assay type: functional, cell-based
HCT-116 [31] = assay: Upregulation of LAMP1 protein expression in human HCT116 cells at 10 uM after 24 hrs by Western blot method; assay type: functional, cell-based
HCT-116 [32] = assay: Downregulation of cathepsin-D protein expression in human HCT116 cells after 24 hrs by Western blot method; assay type: functional, cell-based
[33] = molecular target: Serine/threonine-protein kinase mTOR (Homo sapiens) (UniProt P42345); assay: Inhibition of mTOR phosphorylation in human HCT116 cells after 24 hrs by Western blot method; assay type: cell-based
HCT-116 [34] = assay: Downregulation of mTOR protein expression in human HCT116 cells after 24 hrs by Western blot method; assay type: functional, cell-based
HCT-116 [35] = assay: Downregulation of beta-catenin protein expression in human HCT116 cells after 24 hrs by Western blot method; assay type: functional, cell-based
HCT-116 [36] = assay: Upregulation of cleaved caspase-8 protein expression in human HCT116 cells up to 10 uM after 24 hrs by Western blot method; assay type: functional, cell-based
HCT-116 [37] = assay: Upregulation of cleaved caspase-3 protein expression in human HCT116 cells up to 10 uM after 24 hrs in presence of autophagy inhibitor 3-MA by Western blot method; assay type: functional, cell-based
HCT-116 [38] = assay: Downregulation of Akt protein expression in human HCT116 cells up to 10 uM after 24 hrs in presence of autophagy inhibitor 3-MA by Western blot method; assay type: functional, cell-based

**Q.** For `Cl.Cl.Cl.NCCCCNCCCCNCCCCN1C(=O)c2cccc3cccc1c23`, which IC50 (HCT-116 [1]) is on record?
**A.** The IC50 was 5.72 µM.

**Q.** And the IC50 (HepG2)?
**A.** Its IC50 is 5.28 µM.

**Q.** What about the Activity (HCT-116 [2]) of the same molecule?
**A.** The Activity was “Dose-dependent effect”.

**Q.** What about the Activity (CT26 [3]) of the same molecule?
**A.** Its Activity is “Dose-dependent effect”.

**Q.** What about the Activity (Mus musculus [4]) of the same molecule?
**A.** Its Activity is “Non-Toxic”.

**Q.** What about the Activity (Mus musculus [5]) of the same molecule?
**A.** The Activity was “Toxic”.

**Q.** What about the Activity (Mus musculus [6]) of the same molecule?
**A.** Its Activity is “Toxic”.

**Q.** What about the Activity (Mus musculus [7]) of the same molecule?
**A.** Its Activity is “Toxic”.

**Q.** And the Activity (Mus musculus [8])?
**A.** The Activity was “Toxic”.

**Q.** What about the Drug uptake [9] of the same molecule?
**A.** Its Drug uptake is “Not Active”.

**Q.** What about the Drug uptake [10] of the same molecule?
**A.** The Drug uptake was “Active”.

**Q.** What about the Activity (HCT-116 [11]) of the same molecule?
**A.** The Activity was “Dose-dependent effect”.

**Q.** And the Activity (CT26 [12])?
**A.** Its Activity is “Dose-dependent effect”.

**Q.** What about the Activity (CT26 [13]) of the same molecule?
**A.** The Activity was “Dose-dependent effect”.

**Q.** What about the Activity (HCT-116 [14]) of the same molecule?
**A.** Its Activity is 31.31%.

**Q.** And the Activity (HCT-116 [15])?
**A.** Its Activity is 2.97%.

**Q.** What about the Activity (HCT-116 [16]) of the same molecule?
**A.** The Activity was 17.3%.

**Q.** And the Activity (HCT-116 [17])?
**A.** Its Activity is 18.92%.

**Q.** What about the Activity (HCT-116 [18]) of the same molecule?
**A.** The Activity was 7.21%.

**Q.** And the Activity (HCT-116 [19])?
**A.** The Activity was 66.87%.

**Q.** And the Activity (HCT-116 [20])?
**A.** Its Activity is 11.4%.

**Q.** And the Activity (CT26 [21])?
**A.** The Activity was 42.37%.

**Q.** And the Activity (CT26 [22])?
**A.** Its Activity is 3.56%.

**Q.** What about the Activity (CT26 [23]) of the same molecule?
**A.** The Activity was 61.63%.

**Q.** What about the Activity (CT26 [24]) of the same molecule?
**A.** Its Activity is 6.59%.

**Q.** And the Activity (CT26 [25])?
**A.** The Activity was “Dose-dependent effect”.

**Q.** What about the Activity (CT26 [26]) of the same molecule?
**A.** The Activity was “Active”.

**Q.** What about the Activity (HCT-116 [27]) of the same molecule?
**A.** The Activity was “inactive”.

**Q.** And the Activity (HCT-116 [28])?
**A.** Its Activity is “inactive”.

**Q.** And the Activity (CT26 [29])?
**A.** Its Activity is “inactive”.

**Q.** And the Activity (HCT-116 [30])?
**A.** Its Activity is “inactive”.

**Q.** And the Activity (HCT-116 [31])?
**A.** The Activity was “Active”.

**Q.** And the Activity (HCT-116 [32])?
**A.** Its Activity is “Dose-dependent effect”.

**Q.** What about the inhibition [33] of the same molecule?
**A.** Its inhibition is “Dose-dependent effect”.

**Q.** And the Activity (HCT-116 [34])?
**A.** The Activity was “Dose-dependent effect”.

**Q.** What about the Activity (HCT-116 [35]) of the same molecule?
**A.** Its Activity is “Dose-dependent effect”.

**Q.** What about the Activity (HCT-116 [36]) of the same molecule?
**A.** The Activity was “Active”.

**Q.** What about the Activity (HCT-116 [37]) of the same molecule?
**A.** Its Activity is “inactive”.

**Q.** And the Activity (HCT-116 [38])?
**A.** The Activity was “inactive”.
